The structures appear in SMILES notation. Marks after values point to notes of the source that are not given here.

We go through two compounds from patent publication US7223793B2, “Phenolic acid derivatives and composition for preventing or treating blood lipid level-related diseases comprising the same” (Bionutrigen Co., Ltd., priority 2001, dated 2007).

In one data set the test system is ICR mice. The data set is described as follows: Acute oral toxicity in mice (Experimental Example 5). It is filed as in vivo. On the procedure:
The toxicity of orally administered BN30028 was tested as follows. Four-week-old specific pathogen-free ICR mice, 12 female mice and 12 male mice, were kept in a room under conditions of 22±3° C., 55±10% relative humidity and 12L/12D photoperiod. The mice was acclimated for one week before using in experiment. Fodder (Cheiljedang Co., mouse and rat fodder) and water were sterilized and freely fed to the mice.
BN30028 was dissolved in 0.5% Tween 80 to a concentration of […] and the solution was orally administered to the mice in an amount of 0.2 mL (1 g/kg), 0.4 mL (2 g/kg) or 0.8 mL (4 g/kg) per 20 g of mouse body weight. The solution was administered once for the 1 g/kg and 2 g/kg groups and twice for the 4 g/kg group. […] Also, on the 7th day, the mice were sacrificed and the internal organs were visually examined. From the day of the administration, the weight changes of the animals were recorded every other day to examine the effect of BN30028 on the reduction of body weight of animals.

In a further data set the test system is ACAT. The data set is described as follows: ACAT activity in liver microsomes of treated rabbits (Experimental Example 4). It is filed as in vivo, rabbit. The following applies: liver microsomes of rabbits fed 8 weeks; for ACAT activity: lovastatin 1 mg/kg or BN30028 0.05 wt %, average ± standard deviation; for ACAT activity inhibition: relative to control group. On the procedure:
The rabbits raised as described in step 1 of the Experimental Example 2 were sacrificed by decapitation and the livers were removed from the rabbits. 1 g of the liver tissue taken from each rabbit was homogenized in 5 ml of homogenization medium (0.1 M KH2PO4, pH 7.4, 0.1 mM EDTA and 10 mM β-mercaptoethanol). The homogenate was centrifuged at 3,000×g for 10 minutes at 4° C. and the supernatant thus obtained was centrifuged at 15,000×g for 15 minutes at 4° C. to obtain a supernatant. The resulting supernatant was put into an ultracentrifuge tube (Beckman) and centrifuged at 100,000×g for 1 hour at 4° C. to obtain microsomal pellets, which were then suspended in 3 ml of the homogenization medium and centrifuged at 100,000×g for 1 hour at 4° C. The pellets thus obtained were suspended in 1 ml of the homogenization medium. The protein concentration of the resulting suspension was determined by Lowry's method and then adjusted to the range of 4 to 8 mg/ml. The resulting suspension was stored in a deep freezer (Biofreezer, Forma Scientific Inc.).
6.67 μl, of 1 mg/ml cholesterol solution in acetone was mixed with 6 μl of 10% Triton WR-1339 (Sigma Co.) in acetone. Acetone was removed from the mixture by evaporation under a nitrogen flow. To the resulting mixture, distilled water was added to adjust the concentration of cholesterol to 30 mg/ml.
To 10 μl of the resulting aqueous cholesterol solution, 10 μl of 1 M KH2PO4 (pH 7.4), 5 μl of 0.6 mM bovine serum albumin (BSA), 10 μl of the microsome solution obtained in Step 1 and 55 μl of distilled water (total 90 μl) were added. The mixture was pre-incubated in a water bath at 37° C. for 30 minutes.
10 μl of (1-^14C) oleyl-CoA solution (0.05 μCi, final concentration: 10 μM) was added to the pre-incubated mixture and the resulting mixture was incubated in a water bath at 37° C. for 30 minutes. 500 μl of isopropanol:heptane mixture (4:1 (v/v)), 300 μl of heptane and 200 μl of 0.1 M KH2PO4 (pH 7.4). were added to the mixture. The mixture was mixed vigorously using a vortex mixer and then allowed to stand at room temperature for 2 minutes.
200 μl of the resulting supernatant was put in a scintillation bottle and 4 ml of scintillation fluid (Lumac) was added thereto. The mixture was assayed for radioactivity with 1450 Microbeta liquid scintillation counter (Wallacoy, Finland). ACAT activity was calculated as picomoles of cholesteryl oleate synthesized per minute per mg protein (pmoles/min/mg protein). All the data are expressed by average±standard deviation(p<0.05).
Background: Liver microsomes are a subcellular fraction often used to study metabolism.

Data set [1] concerns New Zealand White rabbits. The data set is described as follows: Fatty streak in the main artery of cholesterol-fed rabbits (Experimental Example 2). The following applies: 8 weeks; for Proportion of stained region (fatty streak region) per unit area of the main artery: 1% cholesterol + RC4 diet, lovastatin 1 mg/kg or BN30028 0.05 wt %, Oil Red O, average ± standard deviation; for Proportion of the fatty streak region compared to the control group / Arterial endothelium, macrophage-lipid complex / atherosclerotic plaque (photographs): 1% cholesterol diet; for Arterial endothelium, macrophage-lipid complex / atherosclerotic plaque (photographs): FIGS. 1a-1c. It is filed as in vivo, rabbit. As for the experimental part:
The rabbits raised in Step 1 were sacrificed and their chests were incised. The incision was performed downward to the diaphragm along the aortic arch and the fat surrounding the main artery was removed. The main artery was incised in the middle along the longitudinal axis from the second aortic intercostal artery anastomoses to the seventh aortic intercostal artery anastomoses and fixed with 10% neutral buffered formalin for 24 hours. Then, the incised main artery was pinned to a dish for staining of fatty streaks according to the method of Esper, E., et al. (J. Lab. Clin. Med., 121, 103-110 (1993)). The staining carried out by washing the artery three times with propylene glycol for 2 minutes respectively. The artery was stained for 30 minutes with a saturated solution of Oil Red O (ORO, Sigma Co.) dissolved in propylene glycol. Thereafter, the artery was washed twice with 85% propylene glycol for 3 minutes respectively to remove the remaining staining solution and, then once with physiological saline. The artery was photographed and the photograph was traced. The proportion (%) of stained region (fatty streak region) per unit area of the main artery was determined with an image analyzer (LEICA, Q-600, Germany). The significant differences between the test groups were tested by student t-test using Microsoft excel (version 7.0) program

Consider `COC(=O)C(Cc1ccccc1)NC(=O)CCc1ccc(O)c(O)c1` (stereo not drawn) [BN30028, 2-[3-(3,4-dihydroxyphenyl)propionylamino]-3-phenyl propionic acid methyl ester], for which, in the data set on ICR mice (oral 1 g/kg, 2 g/kg and 4 g/kg, 7 days after the administration), the Body weight change entry is on record as “normal weight increase without any weight loss”. The LD50 entry in the data set with ICR mice (orally administered, female and male mice) is “more than 4 g/kg body weight”. Further, in the data set on ACAT, the ACAT activity is given as 93.9 ± 21.5 pmol/minute/mg protein and the ACAT activity inhibition amounted to 26.2%. Also, in data set [1], the “Proportion of stained region (fatty streak region) per unit area of the main artery” value is on record as 16.1 ± 9.6^b %; the “Proportion of the fatty streak region compared to the control group” value is given as “significantly reduced”; the “Arterial endothelium, macrophage-lipid complex / atherosclerotic plaque (photographs)” value is “clean”.

In the data set on ACAT, `CC[C@H](C)C(=O)O[C@H]1C[C@@H](C)C=C2C=C[C@H](C)[C@H](CC[C@@H]3C[C@@H](O)CC(=O)O3)[C@H]21` [Lovastatin, reference compound] showed an ACAT activity of 96.2 ± 21.3 pmol/minute/mg protein and an ACAT activity inhibition of 23.8%. Further, in data set [1], the “Proportion of stained region (fatty streak region) per unit area of the main artery” value is 18.2 ± 10.4^b %; the “Proportion of the fatty streak region compared to the control group” value was “significantly reduced”; the “Arterial endothelium, macrophage-lipid complex / atherosclerotic plaque (photographs)” value is on record as “clean”.
